In patent US7173063B1, “Topoisomerase poisons for the treatment of proliferative disorders” (Fred Hutchinson Cancer Research Center, priority 2000, dated 2007):

Legend:
human Topo I = biological target: T1, human Topo I (Homo sapiens, UniProt P11387); assay: Toxicity in yeast overexpressing human Topo I (hTOP1) or htop1-vac mutant; type: cell-based; conditions: GAL promoter, galactose-induced, vs vector
T1 construct: expressed in transfected cells; host or cells: S. cerevisiae BY4705 (S288C background), plasmid phTOP1 under the GAL promoter, vector pRS416
T1 sequence (P11387 2-765): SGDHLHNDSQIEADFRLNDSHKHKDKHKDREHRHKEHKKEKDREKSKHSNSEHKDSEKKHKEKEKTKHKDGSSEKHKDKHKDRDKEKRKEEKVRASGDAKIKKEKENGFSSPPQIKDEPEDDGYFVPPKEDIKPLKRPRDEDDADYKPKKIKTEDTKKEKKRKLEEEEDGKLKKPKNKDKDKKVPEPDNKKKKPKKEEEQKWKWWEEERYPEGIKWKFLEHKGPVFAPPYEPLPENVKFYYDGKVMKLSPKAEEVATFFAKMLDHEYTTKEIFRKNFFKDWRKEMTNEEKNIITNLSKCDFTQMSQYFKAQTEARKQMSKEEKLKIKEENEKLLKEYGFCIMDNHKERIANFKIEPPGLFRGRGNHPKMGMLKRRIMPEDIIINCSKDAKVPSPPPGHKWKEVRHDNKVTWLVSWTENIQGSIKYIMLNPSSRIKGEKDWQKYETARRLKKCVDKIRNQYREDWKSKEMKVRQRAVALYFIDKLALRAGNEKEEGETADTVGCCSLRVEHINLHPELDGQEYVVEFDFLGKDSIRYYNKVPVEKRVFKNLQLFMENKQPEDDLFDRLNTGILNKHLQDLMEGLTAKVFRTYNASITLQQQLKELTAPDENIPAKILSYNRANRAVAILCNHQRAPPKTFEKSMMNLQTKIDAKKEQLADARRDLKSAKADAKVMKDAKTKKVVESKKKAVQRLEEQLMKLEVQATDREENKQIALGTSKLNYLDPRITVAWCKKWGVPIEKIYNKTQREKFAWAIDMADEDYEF
Excerpt: The strains are derived from the A364a genetic background, with the exception of BY4705, which is derived from the S288C background. Gene disruptions were generated by PCR fragment directed replacement (Baudin, et al., Nucleic Acids Research 21: 3329–30 (1993), Guldener, et al., Nucleic Acids Research 24: 2519–24 (1996)). Yeast overexpressing topoisomerase II was constructed by a PCR fragment directed promoter replacement of the topoisomerase II promoter with the yeast GPD promoter flanked upstream by the URA3 marker. All strains (except BY4705) bear the pleitropic drug sensitizing mutations erg6, pdr1, and pdr3 (Balzi, et al., Journal of Bioenergetics & Biomembranes 27: 71–6 (1995), Delaveau, et al, Molecular & General Genetics 244: 501–11 (1994), Gaber, et al., Molecular & Cellular Biology 9: 3447–56 (1989), Saunders, et al., Canadian Journal of Genetics & Cytology, 24: 493–503 (1982). Subik, et al, Current Genetics 10: 665–70 (1986)). The haploid yeast strain BY4705 (Brachmann, et al., Yeast 14: 115–32 (1998)) was used in the experiments described in FIG. 5. Plasmids expressing yeast or human topoisomerase I genes under the GAL promoter (Knab, et al., Journal of Biological Chemistry 268: 22322–30 (1993). Knab, et al., Journal of Biological Chemistry 270: 6141–8 (1995)) were transformed into BY4705 using standard procedures. […]

yeast Topo I = assay: Toxicity in yeast overexpressing yeast Topo I (yTOP1) or ytop1-vac mutant; type: cell-based
Excerpt: The strains are derived from the A364a genetic background, with the exception of BY4705, which is derived from the S288C background. Gene disruptions were generated by PCR fragment directed replacement (Baudin, et al., Nucleic Acids Research 21: 3329–30 (1993), Guldener, et al., Nucleic Acids Research 24: 2519–24 (1996)). Yeast overexpressing topoisomerase II was constructed by a PCR fragment directed promoter replacement of the topoisomerase II promoter with the yeast GPD promoter flanked upstream by the URA3 marker. All strains (except BY4705) bear the pleitropic drug sensitizing mutations erg6, pdr1, and pdr3 (Balzi, et al., Journal of Bioenergetics & Biomembranes 27: 71–6 (1995), Delaveau, et al, Molecular & General Genetics 244: 501–11 (1994), Gaber, et al., Molecular & Cellular Biology 9: 3447–56 (1989), Saunders, et al., Canadian Journal of Genetics & Cytology, 24: 493–503 (1982). Subik, et al, Current Genetics 10: 665–70 (1986)). The haploid yeast strain BY4705 (Brachmann, et al., Yeast 14: 115–32 (1998)) was used in the experiments described in FIG. 5. Plasmids expressing yeast or human topoisomerase I genes under the GAL promoter (Knab, et al., Journal of Biological Chemistry 268: 22322–30 (1993). Knab, et al., Journal of Biological Chemistry 270: 6141–8 (1995)) were transformed into BY4705 using standard procedures.
Yeast toxicity assays were performed essentially as follows: Exponentially growing cultures of the appropriate strains were diluted in synthetic complete media to a concentration of 7.4×10^4 cells/mL, and aliquots (135 μL) were transferred to each well of clear flat-bottomed 96 well plates. Compounds were added in duplicate or triplicate as 15 μL of the appropriate dilution in 5% DMSO. A 15 μL portion of 5% DMSO was added to control wells. […] Cell growth (OD660) in treated wells was plotted as a percentage of the growth in at least four averaged solvent control wells for the same strain. Camptothecin sodium salt (camptothecin Na) was the agent used in all yeast assays as standard.
In this regard, the sensitivity of yeast strains overexpressing either human or yeast topoisomerase I genes (hTOP1 or yTOP1, respectively) under the control of the inducible GAL promoter (see, for example, Knab, et al., Journal of Biological Chemistry 268: 22322–30 (1993); and Knab, et al., Journal of Biological Chemistry 270: 6141–8 (1995)) were used. Additionally, the sensitivity of yeast overexpressing the Topo I-VAC mutant enzyme, containing two amino acid substitutions (htop1-vac and ytop1-vac) that render topoisomerase I insensitive to the action of camptothecin were also examined (see, for example, Knab, et al., Journal of Biological Chemistry 268: 22322–30 (1993); and Knab, et al., Journal of Biological Chemistry 270: 6141–8 (1995)).

Structure (SMILES)	effect of hTOP1 overexpression on toxicity (human Topo I)	toxicity in yeast overexpressing yTOP1-vac compared to vector control, cell survival by colony formation (yeast Topo I; colony formation after treatment)	effect of ytop1-vac (camptothecin-resistant mutant) overexpression on toxicity (yeast Topo I; relative OD660)
O=c1c(Cl)c(Cl)cnn1CCCl [compound IIa]	accentuates the toxicity	is accentuated	effective with both yTOP1 and ytop1-vac
O=C(CCl)Nc1ccc(C(=O)N/N=C/c2ccc(Cl)cc2)cc1 [compound Ia]	Little or no accentuation	–	–
